Counter-ions that a name gives are not always drawn. Like-named read-outs stand apart in the source and are kept apart here.
Assays:
primary neurons = assay: TMRM fluorescence assay of inner mitochondrial membrane potential (ΔΨm); details: for Emax / EC50: Mus musculus, Primary neuron; for Emax: read-out: TMRM (Effect-size); for EC50: read-out: TMRM-EC50; for TMRM Primary: primary screen, 12.5 μM; for TMRM Primary / TMRM Rescreen: 24 h
[1] = system: primary forebrain neurons; assay: cells; details: 24 h; for EC50: Mus musculus, Neuron; for Dendritic Mt CA / Neurite Area: rescreen, 12.5 μM, vs DMSO wells
[2] = read-out: Elongation (Dend Mt length) EC50
[3] = read-out: Health (Ax Mt Circularity) EC50
[4] = read-out: Mt Content (Dend Mt CA) EC50
[5] = read-out: Sprouting (Neurite Area) EC50

`CCCCOc1ccc(C(=O)CCN2CCCCC2)cc1` [DYCLONINE HYDROCHLORIDE] was tested, and the Emax (primary neurons) was 22%, the EC50 (primary neurons) was 750 nM and the “TMRM Primary” value (primary neurons) was 3.64 Z-scores. The “TMRM Rescreen” value (primary neurons) was 6.30 Z-scores, the EC50 [1, 2] was 1500 nM and the EC50 [1, 3] was 200 nM. The EC50 [1, 4] was 200 nM, the EC50 [1, 5] was over 25000 nM and the “Dendritic Mt CA” value [1] was 3.89 robust Z-scores. The “Neurite Area” value [1] was 0.33 robust Z-scores.

With `COC(=O)[C@@H]1[C@H]2C[C@H]3c4[nH]c5ccccc5c4CCN3C[C@@H]2CC[C@@H]1O` [YOHIMBINE HYDROCHLORIDE] the Emax (primary neurons) was 18.6%, the EC50 (primary neurons) was 620 nM and the “TMRM Primary” value (primary neurons) was 2.70 Z-scores. The “TMRM Rescreen” value (primary neurons) was 5.70 Z-scores, the EC50 [1, 2] was 200 nM and the EC50 [1, 3] was 1300 nM. The EC50 [1, 4] was 10 nM, the EC50 [1, 5] was 1700 nM and the “Dendritic Mt CA” value [1] was 3.44 robust Z-scores. For the same compound, the “Neurite Area” value [1] was 2.50 robust Z-scores.

In the case of `O=c1c(-c2ccc(O)cc2)coc2cc(O)cc(O)c12` [GENISTEIN], the Emax (primary neurons) is reported as 19.5%, the EC50 (primary neurons) is reported as 1300 nM and the “TMRM Primary” value (primary neurons) is reported as 3.38 Z-scores. The “TMRM Rescreen” value (primary neurons) was 4.21 Z-scores, the “Dendritic Mt CA” value [1] was 2.93 robust Z-scores and the “Neurite Area” value [1] was 0.34 robust Z-scores.

Source: patent US20230003721A1, “MITOTHERAPEUTICS FOR THE TREATMENT OF BRAIN DISORDERS” (The University of Florida Research Foundation, Inc., priority 2019, published 2023)
